# Test results reported in patent US20190022089A1, “PHARMACEUTICAL COMPOSITIONS AND DOSAGE FORMS” (Ignyta, Inc., priority 2017, published 2019).
# Experiments:
# [1] = Comparative pharmacokinetic study of F1 and F2 formulations; format: in vivo, human; settings: 800 mg fixed dose, 23 healthy subjects
# Description: A comparative pharmacokinetic study in healthy, human subjects was conducted comparing a 200 mg dosage strength of pharmaceutical composition F1 (as described in Example 11) with a 200 mg dosage strength pharmaceutical composition F2 (as described in Example 10).
# Pharmaceutical compositions F1 and F2, along with and lansoprazole, were administered orally with approximately 240 mL of water, according to the randomization scheme. Lansoprazole was administered as 30 mg lansoprazole delayed-release capsules.
# Subjects were randomized into two groups, A and B. Periods 1 and 2 were conducted as a crossover design under fasting conditions where all subjects received F1 and F2. […] A representative summary of Periods 1, 2, and 3 and the pharmaceutical compositions subjects in groups A and B will receive in each Period is found below.
# Subjects were randomized and received 3 out of 4 treatments in one of the following sequences: […] (i.e., Periods 1 and 2 were conducted as a crossover design under fasting conditions [Treatments A and B]). […] Each subject received each of the 3 assigned treatments on one occasion.
# Treatment A: 30 mg lansoprazole (1×30 mg capsule), for 9 consecutive days (within ±1 hour of dosing time on Day 1), with 800 mg F1 (4×200 mg capsules) administered under fasting conditions 1.5 hours after administration of lansoprazole on Day 4. […]
# [2] = target: ALK (Homo sapiens, UniProt Q9UM73); settings: cited from earlier work
# [3] = system: cancer having at least one molecular alteration in one or more of ALK, ROS1, TrkA, TrkB and TrkC; assay: Early clinical studies in humans (antitumor effects); format: in vivo; settings: patients having various forms of cancer
# [4] = Suitability of acids in 1:1 admixture: storage stability (appearance, HPLC); format: physicochemical; settings: for Most abundant impurity (area %): three months storage, HPLC
# Description: The mixtures were prepared in duplicate for each sample, and stored in open top, 4 mL glass vials at (1) 60° C./dry heat and (2) 40° C. and 75% relative humidity (RH).
# All admixture samples and the control samples stored at the 60° C. and dry heat condition remained as dry powders.
# The HPLC traces analyses were conducted on an Agilent 1100 LC, equipped with Agilent Diode Array Detector and Chemstation Software using the conditions found in the table below.
# [5] = target: TrkC (Homo sapiens, UniProt Q16288); settings: cited from earlier work
# [6] = Single-dose food effect study in dogs; format: in vivo; settings: formulation that did not comprise at least one acidulant
# Text: Such food effects can cause difficulty during human testing of drugs as the fed or fasted condition of the patient can cause exposure or bioavailability of drugs to vary widely.
# [7] = Early clinical studies in humans, formulation without acidulant (exposure); settings: for AUC higher when taken with food: formulation without acidulant
# [8] = target: TrkB (Homo sapiens, UniProt Q16620); settings: cited from earlier work
# TrkB, sequence (Q16620 32-822): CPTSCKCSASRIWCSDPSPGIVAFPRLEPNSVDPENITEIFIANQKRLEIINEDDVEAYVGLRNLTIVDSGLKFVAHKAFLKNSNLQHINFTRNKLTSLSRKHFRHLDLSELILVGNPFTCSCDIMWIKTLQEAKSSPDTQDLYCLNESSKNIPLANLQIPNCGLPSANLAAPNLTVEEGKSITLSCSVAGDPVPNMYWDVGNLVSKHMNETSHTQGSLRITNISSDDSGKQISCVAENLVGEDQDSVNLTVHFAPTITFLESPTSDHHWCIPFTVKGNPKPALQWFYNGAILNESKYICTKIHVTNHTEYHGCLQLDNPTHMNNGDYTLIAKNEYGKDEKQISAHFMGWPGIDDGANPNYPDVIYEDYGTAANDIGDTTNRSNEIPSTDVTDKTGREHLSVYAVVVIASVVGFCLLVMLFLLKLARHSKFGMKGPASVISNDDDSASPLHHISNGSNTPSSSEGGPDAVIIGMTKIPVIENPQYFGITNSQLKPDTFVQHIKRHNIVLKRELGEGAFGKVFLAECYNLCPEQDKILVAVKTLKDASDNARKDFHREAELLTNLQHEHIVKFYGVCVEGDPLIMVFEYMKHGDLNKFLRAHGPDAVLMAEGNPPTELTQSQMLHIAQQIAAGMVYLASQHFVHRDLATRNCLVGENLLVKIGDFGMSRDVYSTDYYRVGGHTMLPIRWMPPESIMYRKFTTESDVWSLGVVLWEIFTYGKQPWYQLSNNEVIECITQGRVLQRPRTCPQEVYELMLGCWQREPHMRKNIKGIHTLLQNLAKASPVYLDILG
# TrkC, sequence (Q16288 32-839): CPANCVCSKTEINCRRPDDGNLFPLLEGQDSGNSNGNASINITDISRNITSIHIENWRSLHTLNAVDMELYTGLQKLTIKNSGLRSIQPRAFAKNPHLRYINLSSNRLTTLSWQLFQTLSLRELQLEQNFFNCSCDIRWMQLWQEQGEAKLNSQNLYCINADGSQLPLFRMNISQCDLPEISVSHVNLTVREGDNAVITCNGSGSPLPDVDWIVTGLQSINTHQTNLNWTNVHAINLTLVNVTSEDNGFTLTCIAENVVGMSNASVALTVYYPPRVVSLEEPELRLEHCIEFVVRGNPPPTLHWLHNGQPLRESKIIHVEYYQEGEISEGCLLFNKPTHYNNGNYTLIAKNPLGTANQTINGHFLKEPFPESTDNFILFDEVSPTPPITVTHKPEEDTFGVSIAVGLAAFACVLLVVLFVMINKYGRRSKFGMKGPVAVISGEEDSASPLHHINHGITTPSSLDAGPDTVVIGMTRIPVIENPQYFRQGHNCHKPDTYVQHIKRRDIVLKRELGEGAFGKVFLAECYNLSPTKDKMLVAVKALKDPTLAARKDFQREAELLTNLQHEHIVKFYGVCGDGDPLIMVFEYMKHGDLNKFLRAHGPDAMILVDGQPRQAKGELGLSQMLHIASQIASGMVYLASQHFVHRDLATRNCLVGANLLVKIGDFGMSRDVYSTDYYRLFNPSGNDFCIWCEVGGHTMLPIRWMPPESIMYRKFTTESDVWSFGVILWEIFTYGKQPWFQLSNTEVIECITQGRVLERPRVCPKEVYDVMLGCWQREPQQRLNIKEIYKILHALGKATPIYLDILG
# ALK, sequence (Q9UM73 19-1620): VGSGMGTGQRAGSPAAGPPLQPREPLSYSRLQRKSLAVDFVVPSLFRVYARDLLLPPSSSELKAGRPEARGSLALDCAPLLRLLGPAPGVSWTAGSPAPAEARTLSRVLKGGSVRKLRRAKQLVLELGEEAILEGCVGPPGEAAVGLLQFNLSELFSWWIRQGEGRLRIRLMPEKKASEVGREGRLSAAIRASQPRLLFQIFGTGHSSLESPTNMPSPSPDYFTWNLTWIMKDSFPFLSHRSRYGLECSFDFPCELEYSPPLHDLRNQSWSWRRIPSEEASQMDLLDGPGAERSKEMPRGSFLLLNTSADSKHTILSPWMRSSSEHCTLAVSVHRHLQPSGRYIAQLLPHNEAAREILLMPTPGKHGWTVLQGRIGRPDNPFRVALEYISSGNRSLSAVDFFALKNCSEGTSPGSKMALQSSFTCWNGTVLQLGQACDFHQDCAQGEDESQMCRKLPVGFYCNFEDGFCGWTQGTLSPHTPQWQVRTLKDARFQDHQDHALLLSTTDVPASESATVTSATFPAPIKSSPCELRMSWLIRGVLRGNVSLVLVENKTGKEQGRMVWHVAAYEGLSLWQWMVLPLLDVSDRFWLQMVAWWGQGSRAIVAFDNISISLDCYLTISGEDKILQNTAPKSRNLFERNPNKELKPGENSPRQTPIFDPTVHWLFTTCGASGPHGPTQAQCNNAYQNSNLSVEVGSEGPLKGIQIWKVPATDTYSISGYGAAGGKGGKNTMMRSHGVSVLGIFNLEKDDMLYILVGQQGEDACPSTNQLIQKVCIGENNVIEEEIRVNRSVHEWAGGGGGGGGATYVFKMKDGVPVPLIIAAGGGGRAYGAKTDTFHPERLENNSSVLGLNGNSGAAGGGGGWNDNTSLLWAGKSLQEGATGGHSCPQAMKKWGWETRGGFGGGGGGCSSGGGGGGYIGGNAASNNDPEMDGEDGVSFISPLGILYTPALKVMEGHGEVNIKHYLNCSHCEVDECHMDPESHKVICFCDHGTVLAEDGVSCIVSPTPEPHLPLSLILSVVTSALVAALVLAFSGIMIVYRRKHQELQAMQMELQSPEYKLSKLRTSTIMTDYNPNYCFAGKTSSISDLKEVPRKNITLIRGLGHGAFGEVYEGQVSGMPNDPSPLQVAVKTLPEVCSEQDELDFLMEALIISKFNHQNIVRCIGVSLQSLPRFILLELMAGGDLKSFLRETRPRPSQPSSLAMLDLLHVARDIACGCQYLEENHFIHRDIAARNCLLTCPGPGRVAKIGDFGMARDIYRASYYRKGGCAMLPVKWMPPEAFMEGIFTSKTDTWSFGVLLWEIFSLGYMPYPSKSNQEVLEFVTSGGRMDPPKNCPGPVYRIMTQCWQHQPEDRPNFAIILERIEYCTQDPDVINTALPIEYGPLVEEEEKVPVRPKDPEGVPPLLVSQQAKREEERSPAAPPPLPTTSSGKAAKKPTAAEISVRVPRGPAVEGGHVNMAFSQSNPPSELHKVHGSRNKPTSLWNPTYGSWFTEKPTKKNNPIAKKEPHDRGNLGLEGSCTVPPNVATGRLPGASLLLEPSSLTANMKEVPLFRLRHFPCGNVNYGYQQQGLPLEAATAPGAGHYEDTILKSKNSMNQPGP
smiles,measurement,setting,value
"CN1CCN(c2ccc(C(=O)Nc3n[nH]c4ccc(Cc5cc(F)cc(F)c5)cc34)c(NC3CCOCC3)c2)CC1 [N-[5-(3,5-difluorobenzyl)-1H-indazol-3-yl]-4-(4-methyl-piperazin-1-yl)-2-(tetrahydro-pyran-4-ylamino)-benzamide]",correlation of total exposure with body weight or body surface area,[1],did not correlate with body weight or body surface area
same,inhibition,[2],potent inhibitor
same,antitumor effects,[3],antitumor effects
same,Most abundant impurity (area %),"[4]; 40° C./75% RH, listed as Control",0.13%
same,Most abundant impurity (area %),[4]; 60° C. Dry Heat,0.13%
same,physical state observed,"[4]; 13 days of storage, 40° C. and 75% RH",remained dry
same,inhibition,[5],potent inhibitor
same,"exposure levels, fed compared to fasting conditions",[6],approximately 2 fold
same,AUC higher when taken with food,[7]; 200 mg/m^2/day,approximately 200%
same,AUC higher when taken with food,[7]; 400 mg/m^2/day,~50%
same,Cmax higher with food,[7]; both doses (200 and 400 mg/m^2/day),approximately 150%
same,"exposures with concomitant proton pump inhibitor drugs (PPIs), such as lansoprazole",[7]; some patients,variable
same,inhibition,[8],potent inhibitor
